In brackets after ≈: the same amount, converted by molar mass.
Tests used:
[1] = system: Toxoplasma gondii BK strain; assay: T. gondii tachyzoite intracellular proliferation in VERO host cells ([3H]uracil incorporation); format: cell-based; settings: Toxoplasma gondii
Procedure: The epithelial cell line VERO (ATCC-Catalog No. CCL-81^TM), derived from the kidney of the African green monkey, Cercopithecus aethiops and fibroblast cell line L-929 (ATCC-Catalog No. CCL-1^TM), derived from Mus musculus (http://www.atcc.org) were grown in Iscoves’s Modified Dulbecco’s Medium (IMDM) supplemented with 10% (v/v) fetal bovine serum (FBS), plus 2 mM L-glutamine, 100 U/ml penicillin, 100.00 µg/ml streptomycin, 5 × 10^−5 M 2-mercaptoethanol and maintained at 37 °C in a 10% CO2 atmosphere. Subcultures were performed via enzymatic cell dissociation in 0.25% trypsin. After dissociation, the cells were placed in culture medium at 4 °C with 10% FBS to inhibit the action of trypsin. The isolated cells were centrifuged for 10 min at 1000×g at 4 °C, and the cells were grown in new bottles. This procedure was repeated when cells reached a confluence of ~90%. All commercial reactants and solvents were purchased from either Sigma-Aldrich Laborchemikalien GmbH (Dzitko et al. [2014]).
Suspensions of the compounds 4a–l were freshly prepared (5 mg/ml DMSO) before the cells were exposed, and diluted to appropriate concentrations; 0.9, 1.8, 3.9, 7.8, 15.6, 31.2, 62.5, and 125.00 μg/ml with the culture medium. Cells treated with 2.5% DMSO-solvent served as a control in each experiment.
Stock solutions of the Sulfadiazine (100 mg/ml 1 N NaOH; Catalog No. S8626) was freshly prepared before each experiment, and diluted to appropriate concentrations: 5.00, 25.00, 50.00, 125.00, 250.00, 500.00, 1250.00, and 2500.00 μg/ml, respectively in IMDM complete medium. All commercial reactants and solvents were purchased from either Sigma-Aldrich Laborchemikalien GmbH.
Tachyzoites of T. gondii, BK strain, were maintained in female C57BL/6 (H-2^b) and BALB/c (H-2^d) mice (with genetically determined high and low susceptibility, respectively to Toxoplasma infection) via serial intraperitoneal inoculation of 10^5–10^6 parasites per mouse in phosphate-buffered saline (PBS). After 48 to 96 h, parasites were harvested via peritoneal lavage using PBS, pH 7.2, and centrifuged at 200×g for 5 min to remove blood cells and cell debris. The supernatant containing tachyzoites was collected and centrifuged again at 2000×g for 15 min. The final pellet was resuspended in IMDM, quantified in a Burker’s chamber, and used in experimental assays. Inbred mice were kept under standard laboratory conventional conditions. All experimental procedures were conducted according to guidelines of the 9. Local Ethics Commission for Experiments on Animals in Lodz.
VERO, (2 × 10^4 cells/100 µl/well) were grown in complete medium (IMDM) on 96-well plates. After 24 h incubation, a medium was removed and then T. gondii […] tachyzoites, suspended in culture medium supplemented with 0.9–125.00 μg/ml diaminotriazines 4a–l and as a control-sulfadiazine (5.0–2500.0 μg/ml), were added (2 × 10^5 tachyzoites/200 µl/well) to the cell monolayers. After subsequent 48 h incubation 1 µCi/well of [^3H] uracil (Moravek Biochemicals Inc., Brea, CA, USA) was applied to each microculture for further 18–20 h. The amount of the isotope incorporated into the parasite nucleic acid pool, corresponding to the parasite growth, was measured by liquid scintillation counting with 1450 Microbeta Plus Liquid Scintillation Counter (Wallac Oy, Turku, Finland). The cpms of host cells alone (below 250/microculture) were subtracted from cpms of T. gondii infected microcultures (Dzitko et al. [2014]).

[2] = system: biphenotypic B myelomonocytic leukemia MV4-11 cells; assay: In vitro antiproliferative assay (MTT), MV4-11; format: cell-based, human; settings: 72 h exposure, mean ± SD
Procedure: Biphenotypic B myelomonocytic leukemia MV4-11, human lung carcinoma A549, human breast carcinoma MCF-7, and normal mouse fibroblast BALB/3T3 cells were obtained from American Type Culture Collection (Rockville, Maryland, USA). All the cell lines are being maintained at the Institute of Immunology and Experimental Therapy, Wroclaw, Poland. MV4-11 cells were cultured in RPMI 1640 medium (Gibco, UK) with 2 mM L-glutamine adjusted to contain 1.0 mM sodium pyruvate, and 10% fetal bovine serum (FBS) (all from Sigma-Aldrich, Germany). A549 cells were cultured in RPMI 1640+ Opti-MEM (1:1) (both from Gibco, UK), MCF-7 cells in Eagle medium (IIET, Wroclaw, Poland), BALB/3T3 in Dulbecco medium (IIET, Poland) supplemented with 2 mM L-glutamine and 1.0 mM sodium pyruvate, 10% fetal bovine serum (all from Sigma-Aldrich, Germany). The MCF-7 cell culture was supplemented with 0.8 mg/l of insulin (Sigma-Aldrich, Germany). All culture media were supplemented with 100 units/ml penicillin, and 100 µg/ml streptomycin (both from Polfa Tarchomin S.A., Poland). All cell lines were grown at 37 °C with 5% CO2 humidified atmosphere (Łączkowski et al. [2014], [2016a]).
Prior to usage, the compounds were dissolved in DMSO and culture medium (1: 9) to the concentration of 1 mg/ml, and subsequently diluted in culture medium to reach the required concentrations (0.1, 1, 10, and 100 µg/ml) (Łączkowski et al. [2014], [2016a]).
Twenty-four hours prior to the addition of the tested compounds, the cells counted using Burker hemocytometer were plated in 96-well plates (Sarstedt, Germany) at a density of 1 × 10^4 cells per well. The assay was performed after 72 h of exposure to varying concentrations of the tested agents. The in vitro cytotoxic effect of all agents was examined using the SRB assay for adherent cells (A549, MCF-7, and BALB/3T3) or MTT assay for leukemia cells (MV4-11) as described previously. The results were calculated as an inhibitory concentration 50 (IC50)—the concentration of tested agent which inhibits proliferation of 50% of the cancer cell population. Each compound in each concentration was tested in triplicate in a single experiment, which was repeated 3–7 times (Rubinstein et al. [1990]; Bramson et al. [1995]).
Twenty microliter of MTT solution (MTT: 3-(4,5-dimethylthiazol-2-yl)-2,5-diphenyltetrazolium bromide, stock solution: 5 mg/ml) was added to each well and incubated for 4 h. After the incubation time was complete, 80 µl of the lysis mixture was added to each well (lysis mixture: 225 ml dimethylformamide, 67.5 g sodium dodecyl sulfate and 275 ml of distilled water). The optical densities of the samples were read after 24 h on a Synergy H4 (BioTek Instruments USA) photometer microtiter plate reader at 570 nm (Sidoryk et al. [2012]). All of chemicals were obtained from Sigma-Aldrich, Germany.

[3] = system: normal mouse fibroblast Balb/3T3 cells; assay: In vitro cytotoxicity (SRB), Balb/3T3; format: cell-based; settings: 72 h exposure, mean ± SD
Procedure: (§1) Biphenotypic B myelomonocytic leukemia MV4-11, human lung carcinoma A549, human breast carcinoma MCF-7, and normal mouse fibroblast BALB/3T3 cells were obtained from American Type Culture Collection (Rockville, Maryland, USA). All the cell lines are being maintained at the Institute of Immunology and Experimental Therapy, Wroclaw, Poland. MV4-11 cells were cultured in RPMI 1640 medium (Gibco, UK) with 2 mM L-glutamine adjusted to contain 1.0 mM sodium pyruvate, and 10% fetal bovine serum (FBS) (all from Sigma-Aldrich, Germany). A549 cells were cultured in RPMI 1640+ Opti-MEM (1:1) (both from Gibco, UK), MCF-7 cells in Eagle medium (IIET, Wroclaw, Poland), BALB/3T3 in Dulbecco medium (IIET, Poland) supplemented with 2 mM L-glutamine and 1.0 mM sodium pyruvate, 10% fetal bovine serum (all from Sigma-Aldrich, Germany). The MCF-7 cell culture was supplemented with 0.8 mg/l of insulin (Sigma-Aldrich, Germany). All culture media were supplemented with 100 units/ml penicillin, and 100 µg/ml streptomycin (both from Polfa Tarchomin S.A., Poland). All cell lines were grown at 37 °C with 5% CO2 humidified atmosphere (Łączkowski et al. [2014], [2016a]). Prior to usage, the compounds were dissolved in DMSO and culture medium (1: 9) to the concentration of 1 mg/ml, and subsequently diluted in culture medium to reach the required concentrations (0.1, 1, 10, and 100 µg/ml) (Łączkowski et al. [2014], [2016a]). Twenty-four hours prior to the addition of the tested compounds, the cells counted using Burker hemocytometer were plated in 96-well plates (Sarstedt, Germany) at a density of 1 × 10^4 cells per well. The assay was performed after 72 h of exposure to varying concentrations of the tested agents. The in vitro cytotoxic effect of all agents was examined using the SRB assay for adherent cells (A549, MCF-7, and BALB/3T3) or MTT assay for leukemia cells (MV4-11) as described previously. […] Each compound in each concentration was tested in triplicate in a single experiment, which was repeated 3–7 times (Rubinstein et al. [1990]; Bramson et al. [1995]). Cells were attached to the bottom of plastic wells by fixing them with cold 50% TCA (trichloroacetic acid, POCH, Gliwice, Poland) on top of the culture medium in each well. The plates were incubated at 4 °C for 1 h and then washed five times with tap water. The cellular material fixed with TCA was stained with 0.1% sulforhodamine B (SRB, Sigma-Aldrich, Germany) and dissolved in 1% acetic acid (POCH, Gliwice, Poland) for 30 min. Unbound dye was removed by rinsing (4×) in 1% acetic acid. The protein-bound dye was extracted with 10 mM unbuffered Tris base (Sigma-Aldrich, Germany) for determination of the optical density (λ = 540 nm) in a computer-interfaced, 96-well Synergy H4 (BioTek Instruments USA) photometer microtiter plate reader (Sidoryk et al. [2012]).

[4] = system: human lung carcinoma A549 cells; assay: In vitro antiproliferative assay (SRB), A549; format: cell-based; settings: 72 h exposure, mean ± SD
Procedure: as §1

[5] = system: human breast carcinoma MCF-7 cells; assay: In vitro antiproliferative assay (SRB), MCF-7; format: cell-based; settings: 72 h exposure, mean ± SD
Procedure: as §1

| SMILES | activity at 5 µg/mL ([1]; 5.00 µg/ml, VERO host cells) [%] | activity at 25 µg/mL ([1]; 25.00 µg/ml, VERO host cells) [%] | activity at 50 µg/mL ([1]; 50.00 µg/ml, VERO host cells) [%] | activity at 125 µg/mL ([1]; 125.00 µg/ml, VERO host cells (Table 3)) [%] | activity at 250 µg/mL ([1]; 250.00 µg/ml, VERO host cells) [%] | activity at 500 µg/mL ([1]; 500.00 µg/ml, VERO host cells) [%] | activity at 1250 µg/mL ([1]; 1250.00 µg/ml, VERO host cells) [%] | activity at 2500 µg/mL ([1]; 2500.00 µg/ml, VERO host cells) [%] | IC50 ([1]; VERO host cells, GraphPad Prism curves, read-out: IC50 (50% inhibition of T. gondii proliferation in vitro)) [µg/mL] | IC50 MV4-11 [2] [µg/mL] | IC50 Balb/3T3 [3] [µg/mL] | IC50 A549 [4] [µg/mL] | IC50 MCF-7 [5] [µg/mL] |
| --- | --- | --- | --- | --- | --- | --- | --- | --- | --- | --- | --- | --- | --- |
| Nc1ccc(S(=O)(=O)Nc2ncccn2)cc1 [Sulfadiazine, reference compound] | 92 | 80.5 | 70.7 | 55.2 | 52.8 | 41.6 | 39.7 | 39.6 | 1020 (≈ 4.09 mM) |  |  |  |  |
| N.N.[Cl][Pt][Cl] [cis-platin, reference compound] |  |  |  |  |  |  |  |  |  | 0.22 ± 0.11 | 2.55 ± 0.588 | 2.69 ± 1.119 | 2.33 ± 0.465 |

Source: publication PMC5854716, “Synthesis, molecular docking, ctDNA interaction, DFT calculation and evaluation of antiproliferative and anti-Toxoplasma gondii activities of 2,4-diaminotriazine-thiazole derivatives” (Medicinal Chemistry Research, 2018)
